Reference: patent EP0278997A1, “Azapropazone rectal capsules” (SIEGFRIED AKTIENGESELLSCHAFT, priority 1987, dated 1988)
Several values for one entry are separate records, joined by “and”; a condition that tells them apart may be missing. Identical values can stand only once. Like-named read-outs stand apart in the source and are kept apart here.

Assay: Bioavailability of the rectal capsule versus i.v. administration (plasma AUC 0-72) in test subjects
Type: in vivo
Conditions: for AUC at 72 h: human, plasma, iv, read-out: A U C 0 - 72

Q: For CCCC1C(=O)N2C(N(C)C)=Nc3ccc(C)cc3N2C1=O (stereo not drawn) [Azapropazon, 3-Dimethyl-amino-7-methyl-1,2-(n-propyimaionyi)-1,2-dihydro-1,2.4-benzotriazin], which AUC at 72 h (geometric mean (geom.x) of 6 Probanden) is on record?
A: Its AUC at 72 h is 1060 µg·h/mL.

Q: What about the AUC at 72 h (mean (x) of 6 Probanden) of the same molecule?
A: Its AUC at 72 h is 1080 µg·h/mL.

Q: What about the “A U C 0 - 72” value (individual Proband, 4320 min) of the same molecule?
A: The value was 926.46 mcg/ml.Std and 728.31 mcg/ml.Std and 1158.02 mcg/ml.Std and 964.71 mcg/ml.Std and 1466.56 mcg/ml.Std and 1252.36 mcg/ml.Std.
